For experiment [1], the target named is T1, phosphorylated LCK kinase (Homo sapiens, UniProt P06239, C224D/P223M).
T1 construct: starting from amino acid 223 to the end of the protein at amino acid 509; made in house; host or cells: insect cells
Description: Inhibition of phosphorylated LCK tyrosine kinase activity (coupled spectrophotometric assay). Type of experiment: biochemical. Particulars: read-out: P-LCK % Inhibition at 1 μM. How it is done: Cloning, expression and purification of the cytosolic domain of FGFR1 tyrosine kinase (amino acids 456-766) containing three amino acid substitutions (L457V, C488A, and C584S) were conducted as previously described (Mohammadi, M., Schiessinger, J., & Hubbard, S. R. Cell, 86, (1996) 577-587). This domain was expressed in Sf9 insect cells using a baculovirus expression vector, and protein was purified using conventional techniques. The LCK tyrosine kinase was expressed in insect cells as an N-terminal deletion starting from amino acid 223 to the end of the protein at amino acid 509. The N-terminus of the protein also had two amino acid substitutions, P223M and C224D. Kinases were purified using conventional chromatographic methods.
Tyrosine kinase activity was measured using a coupled, continuous spectrophotometric assay, in which production of phosphorylated poly(Glu,Tyr; 4:1) substrate and ADP is coupled to the pyruvate kinase-catalyzed transfer of a phosphate from phosphoenolpyruvate to ADP, with generation of pyruvate and regeneration of ATP. Pyruvate production is in turn coupled to the lactate dehydrogenase-catalyzed reduction of pyruvate to form lactate, with concomitant conversion of NADH to NAD^+. Loss of NADH is monitored by measuring absorbance at 340 nm (see e.g., Technikova-Dobrova et al., “Spectrophotometric Determination of Functional Characteristics of Protein Kinases with Coupled Enzymatic Assay,” FEBS Letters, 292 (1991), pp. 69-72). Enzyme activity was measured in the presence of 200 mM HEPES (pH 7.5), 2 mM phosphoenolpyruvate, 0.3 mM NADH, 20 mM MgCl2, 100 μM ATP, 5 mM DTT, 5.1 or 25 mM poly (Glu,Tyr) 4:1 for P-FGF or P-LCK assays, respectively, and 15 units/mL each of pyruvate kinase and lactate dehydrogenase. Phosphorylated FGF receptor kinase was present at 100 nM and phosphorylated LCK kinase was present at 50 nM. Assays were performed under initial rate conditions at 37° C., and rates were corrected for any background rate measured in the absence of enzyme. Percent inhibition was calculated relative to control enzyme assayed in the presence of 2% (v/v) DMSO.

The test system of a further experiment is HCT-116 cell line. Put plainly: Inhibition of cell growth, MTT tetrazolium salt assay. Type of experiment: cell-based. Particulars: Homo sapiens, HCT-116, 120 h, MTT, three to five days; for IC90: 90% inhibition of growth. In short, it runs like this:
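Growth inhibition was read as MTT-formazan absorbance at 540 nm, after 4 h with 0.2 mg/mL MTT. Before that, HCT-116 cells had been exposed 3–5 days at 37 °C to compounds in 0.5% (v/v) DMSO, added 4 h after plating. 50% and 90% inhibitory concentrations were taken from semi-log concentration–inhibition plots versus vehicle controls.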
A general note: Tetrazolium dyes change colour on reduction, which living cells bring about.

For a further experiment, the target named is T2, human CDK4/cyclin D3 (Homo sapiens, UniProt P11802).
T2 construct: made in house; host or cells: insect cells co-infected with baculovirus vectors
T2 sequence (P11802 whole entry): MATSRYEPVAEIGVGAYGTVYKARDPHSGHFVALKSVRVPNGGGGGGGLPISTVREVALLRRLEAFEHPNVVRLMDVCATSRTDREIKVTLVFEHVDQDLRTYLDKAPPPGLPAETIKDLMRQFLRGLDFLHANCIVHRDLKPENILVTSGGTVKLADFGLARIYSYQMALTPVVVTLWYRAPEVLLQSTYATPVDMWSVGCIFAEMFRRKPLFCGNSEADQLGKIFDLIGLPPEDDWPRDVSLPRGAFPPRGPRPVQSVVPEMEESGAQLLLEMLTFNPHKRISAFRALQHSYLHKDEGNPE
T2 sequence (P30281 1-264 partner limits assumed): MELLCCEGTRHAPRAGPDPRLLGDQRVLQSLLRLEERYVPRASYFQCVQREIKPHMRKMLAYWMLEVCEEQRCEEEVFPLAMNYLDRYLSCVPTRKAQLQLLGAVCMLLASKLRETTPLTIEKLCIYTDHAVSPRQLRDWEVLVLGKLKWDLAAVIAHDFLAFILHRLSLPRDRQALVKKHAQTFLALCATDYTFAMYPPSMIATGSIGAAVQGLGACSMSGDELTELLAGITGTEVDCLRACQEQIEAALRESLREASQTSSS
Put plainly: Inhibition of CDK4/cyclin D retinoblastoma kinase activity (Ki; % inhibition). The note with it: apparent Ki, CDK4/cyclin D3, Rb substrate. Type of experiment: biochemical. In outline: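 Radiometric filter-binding read-out: Rb residues 386-928 phosphorylated by 5 nM CDK4/cyclin D3(1-264) from baculovirus-infected insect cells, 25 μM ATP, HEPES pH 7.4, 30 °C. Run 20 min, or 60 min for tight-binding inhibitors. Screening at 30 nM theoretical compound; apparent Ki by competitive-inhibition fitting.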

Each structure is given as a SMILES string. Where a name gives a salt, the structure may show the parent alone.

T1 sequence (P06239 223-509 P223M/C224D): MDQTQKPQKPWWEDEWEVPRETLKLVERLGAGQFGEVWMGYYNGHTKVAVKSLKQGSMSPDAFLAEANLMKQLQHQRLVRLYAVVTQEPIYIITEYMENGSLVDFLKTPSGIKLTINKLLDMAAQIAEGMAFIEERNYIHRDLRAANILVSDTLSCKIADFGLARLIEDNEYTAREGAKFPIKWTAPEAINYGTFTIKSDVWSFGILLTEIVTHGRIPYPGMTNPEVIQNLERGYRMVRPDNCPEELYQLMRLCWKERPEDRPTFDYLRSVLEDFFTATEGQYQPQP

One may read the inhibition as the share of the control response that was lost under treatment. One may read the IC50 as the midpoint of a concentration-inhibition curve. With `Nc1nc(Nc2ccc(C(=O)NCCN3CCCCC3)cc2)sc1C(=O)c1c(F)cccc1F` [Example A15, 4-[4-Amino-5-(2,6-difluoro-benzoyl)-thiazol-2-ylamino]-N-(2-piperidin-1-yl-ethyl)-benzamide], the inhibition at 1 µM in experiment [1] came to 0%. The IC50 with HCT-116 cell line was 90 nM. In addition, on human CDK4/cyclin D3, the Ki worked out at 7 nM.

As for `Nc1nc(Nc2ccc(C(=O)Nc3ccc(N4CCOCC4)cc3)cc2)sc1C(=O)c1c(F)cccc1F` [Example A21], in experiment [1], the inhibition at 1 µM worked out at 0%. Besides, in the experiment with HCT-116 cell line, the IC50 worked out at 100 nM. Moreover, the Ki on human CDK4/cyclin D3 turned out to be 105 nM.

One may read the IC90 as the point of the concentration-response curve where the effect stands at 90%. With `CN1CCC[C@H]1CNC(=O)c1ccc(Nc2nc(N)c(C(=O)c3c(F)cccc3F)s2)cc1` [Example A31, 4-[4-Amino-5-(2,6-difluoro-benzoyl)-thiazol-2-ylamino]-N-(1-methyl-pyrrolidin-2S-yl-methyl)-benzamide Dihydrochloride], the inhibition at 1 µM in experiment [1] amounted to 0%. Also, in the experiment with HCT-116 cell line, the IC50 amounted to 30 nM and the 90% effect concentration (IC90) stood at 70 nM. Besides, the Ki on human CDK4/cyclin D3 came out at 7 nM.

Take `Nc1nc(Nc2ccc(C(=O)NCCc3ccc(O)cc3)cc2)sc1C(=O)c1c(F)cccc1F` [Example A14, 4-[4-Amino-5-(2,6-difluoro-benzoyl)-thiazol-2-ylamino]-N-[2-(4-hydroxy-phenyl)-ethyl]-benzamide]: the inhibition at 1 µM in experiment [1] was determined as 0%. The IC50 in the experiment on HCT-116 cell line came out at 42 nM. On human CDK4/cyclin D3, the Ki worked out at 14 nM.

In the case of `CC(CN(C)C)NC(=O)c1ccc(Nc2nc(N)c(C(=O)c3c(F)cccc3F)s2)cc1` (centres unmarked) [Example A20, 4-[4-Amino-5-(2,6-difluoro-benzoyl)-thiazol-2-ylamino]-N-(2-dimethylamino-1RS-methyl-ethyl)-benzamide Hydrochloride Salt], in experiment [1], the inhibition at 1 µM turned out to be 0%. In the experiment with HCT-116 cell line, the IC50 is 76 nM and the 90% effect concentration (IC90) came out at 180 nM. For the same compound, the Ki on human CDK4/cyclin D3 amounted to 32 nM.

For the origin of these results see patent US6720346B2, “Thiazole benzamide derivatives and pharmaceutical compositions for inhibiting cell proliferation” (Agouron Pharmaceuticals, Inc., priority 2001, dated 2004).
